The text below walks through data of US10344019B2 (priority 2010, dated 2019).

Common to all, as to assay: microbe, parasite or virus in culture
Type in all cases: cell-based

Test [1] concerns HCV 1b RLuc cells (dicistronic genotype 1b Con1 replicon, RLuc reporter). As for the experimental part:
(§1) Evaluation of cell-based anti-HCV activity: Antiviral potency (EC50) was determined using a Renilla luciferase (RLuc)-based HCV replicon reporter assay. To perform the assay for genotype 1 and 2a JFH-1, HCV 1b RLuc cells (harboring a dicistronic genotype 1b Con1 replicon that encodes a RLuc reporter), or HCV 1a RLuc cells (harboring a dicistronic genotype 1a H77 replicon that encodes a RLuc reporter), or HCV 2a JFH-1 Rluc cells (harboring a dicistronic genotype 2a JFH-1 replicon that encodes a RLuc reporter) were dispensed into 384-well plates. To perform the assay for genotype 2a (with M31 present) or 2b, HCV 2a Rluc or 2b Rluc cells (both with M31 present) harboring a dicistronic NS5A chimeric genotype 2a JFH-1 replicon that encodes a RLuc reporter and either genotype 2a J6 strain NS5A gene or genotype 2b MD2b-1 NS5A gene (based on Los Alamos HCV database isolates, both with M31 present) respectively, were dispensed into 384-well plates. To perform the assay for genotype 3 and 4, HCV 3a RLuc or 4a Rluc cells harboring a dicistronic NS5A chimeric genotype 1b Con1 replicon that encodes a RLuc reporter and either a consensus genotype 3a NS5A gene or genotype 4a NS5A gene (based on Los Alamos HCV database isolates) respectively, were dispensed into 384-well plates. Compounds were re-suspended in DMSO at a concentration of 10 mM and serially diluted in DMSO either manually or using an automated pipeting instrument. Serially diluted compounds were mixed with cell culture media and added to the seeded cells. […] 72 hours later, cells were lysed and Renilla luciferase activity quantified as recommended by the manufacturer (Promega-Madison, Wis.). Non-linear regression was performed to calculate EC50 values.

Test [2] deals with HCV 1a RLuc cells (dicistronic genotype 1a H77 replicon, RLuc reporter). Conditions: genotype 1a H77 replicon, read-out: 1a. As for the experimental part:
as §1
A general note: A replicon is a self-replicating genome or part of one, used to study replication in cells.

The subject of test [3] is HCV 3a RLuc cells (NS5A chimeric genotype 1b Con1 replicon with consensus genotype 3a NS5A gene). As for the experimental part: as §1
The test system of test [4] is HCV 2a JFH-1 Rluc cells (dicistronic genotype 2a JFH-1 replicon, RLuc reporter). The conditions noted are these: genotype 2a JFH-1 replicon, read-out: 2a JFH. As for the experimental part:
as §1

The mark [5] stands for this setting: Hepatitis C virus, 72 h, read-out: 1b (nM).
[6] abbreviates: Hepatitis C virus, 72 h, Table 2, 72 hours.
Setting [7] is: Hepatitis C virus, read-out: 3a, Table 2, genotype 3a NS5A chimeric replicon.
The mark [8] stands for this setting: Hepatitis C virus, 72 h, Table 1, 72 hours.
The mark [9] stands for this setting: Hepatitis C virus, read-out: 1b (nM).
Where [10] appears, read: Hepatitis C virus, RLuc reporter.
Where [11] appears, read: Hepatitis C virus, read-out: 3a, genotype 3a NS5A chimeric 1b Con1 replicon.

Like-named read-outs stand apart in the source and are kept apart here.

For the compound `COC(=O)N[C@H](C(=O)N1CCC[C@H]1c1ncc(-c2ccc(-c3ccc4cc(-c5cnc([C@@H]6CCCN6C(=O)[C@H](NC(=O)OC)c6ccccc6)[nH]5)ccc4c3)cc2)[nH]1)C(C)C` [Example 30], the EC50 in test [1] (setting [5]) was 0.008 nM; in test [2] (setting [6]) it was 0.001 to 0.999 nM; in test [3] (setting [7]), 0.001 to 0.99 nM; in test [4] (setting [6]) it was 0.001 to 0.999 nM.
In the case of `COC(=O)N[C@H](C(=O)N1CCC[C@H]1c1ncc(-c2ccc3c4c(ccc3c2)-c2ccc(-c3cnc([C@@H]5CCCN5C(=O)C(c5ccccc5)N(C)C)[nH]3)cc2CO4)[nH]1)C(C)C` (stereo partly drawn) [Example 3], the EC50 in test [1] (setting [5]) was 0.011 nM; in test [2] (setting [8]), 0.001 to 0.999 nM; in test [3] (Hepatitis C virus, read-out: 3a, Table 1, genotype 3a NS5A chimeric replicon) it was 0.001 to 0.99 nM; in test [4] (setting [8]), 0.001 to 0.999 nM.
On to `CCC(=O)N[C@@H](C(=O)N1CCC[C@H]1c1ncc(-c2ccc(-c3ccc4cc(-c5cnc([C@@H]6CCCN6C(=O)[C@@H](NC(=O)OC)C(C)C)[nH]5)ccc4c3)cc2)[nH]1)c1ccccc1` [Example 187], for which the EC50 is 0.007 nM in test [1] (setting [9]), 0.001 to 0.999 nM in test [2] (setting [10]), 0.001 to 0.99 nM in test [3] (setting [11]) and 0.001 to 0.999 nM in test [4] (setting [10]).
In the case of `COC(=O)N[C@H](C(=O)N1CCC[C@H]1c1ncc(-c2ccc(-c3ccc4cc(-c5cnc([C@@H]6CCCN6C(=O)C(c6ccccc6)N6CCCC6)[nH]5)ccc4c3)cc2)[nH]1)C(C)C` (stereo partly drawn) [Example 125], the EC50 in test [1] (setting [9]) is 0.032 nM; in test [2] (setting [10]), 0.001 to 0.999 nM; in test [3] (setting [11]), 0.001 to 0.99 nM; in test [4] (setting [10]), 0.001 to 0.999 nM.
`COC(=O)N[C@H](C(=O)N1CCC[C@H]1c1ncc(-c2ccc(-c3ccc4cc(-c5cnc([C@@H]6CCCN6C(=O)[C@@H](NC(=O)OC)C(C)C)[nH]5)ccc4c3)cc2)[nH]1)c1ccc(Cl)cc1` [Example 106]: the EC50 in test [1] (setting [9]) was 0.024 nM; in test [2] (setting [10]), 1 to 44 nM; in test [3] (setting [11]), 1 to 4.99 nM; in test [4] (setting [10]) it was 1 to 44 nM.
Take `COC(=O)N[C@H](C(=O)N1CCC[C@H]1c1ncc(-c2ccc3cc(-c4ccc(-c5cnc([C@@H]6CCCN6C(=O)[C@H](NC(=O)OC)c6ccccc6C)[nH]5)cc4)ccc3c2)[nH]1)C(C)C` [Example 150]: the EC50 in test [1] (setting [9]) is 0.006 nM; in test [2] (setting [10]), 0.001 to 0.999 nM; in test [3] (setting [11]) it was 0.001 to 0.99 nM; in test [4] (setting [10]), 0.001 to 0.999 nM.
Turning to `COC(=O)NC(C(=O)N1CCC[C@H]1c1ncc(-c2ccc(-c3ccc4cc(-c5cnc([C@@H]6CCCN6C(=O)[C@@H](NC(=O)OC)C(C)C)[nH]5)ccc4c3)cc2)[nH]1)c1ccc(Cl)cc1` (stereo partly drawn) [Example 107], the EC50 in test [1] (setting [9]) is 0.024 nM; in test [2] (setting [10]) it was 1 to 44 nM; in test [3] (setting [11]), 1 to 4.99 nM; in test [4] (setting [10]), 1 to 44 nM.
`COC(=O)N[C@H](C(=O)N1CCC[C@H]1c1ncc(-c2ccc3cc(-c4ccc(-c5cnc([C@@H]6C[C@@H](C#N)CN6C(=O)[C@H](NC(=O)OC)c6ccccc6)[nH]5)cc4)ccc3c2)[nH]1)C(C)C` [Example 145]: the EC50 in test [1] (setting [9]) was 0.01 nM; in test [2] (setting [10]), 0.001 to 0.999 nM; in test [3] (setting [11]), 1 to 4.99 nM; in test [4] (setting [10]), 0.001 to 0.999 nM.
As for `COC(=O)N[C@H](C(=O)N1CCC[C@H]1c1ncc(-c2ccc(-c3ccc4cc(-c5cnc([C@@H]6CCCN6C(=O)[C@@H](NC(=O)OC)C(C)C)[nH]5)ccc4c3)cc2)[nH]1)c1ccccc1OC` [Example 105], the EC50 in test [1] (setting [9]) was 0.042 nM; in test [2] (setting [10]), 1 to 44 nM; in test [3] (setting [11]) it was 1 to 4.99 nM; in test [4] (setting [10]), 1 to 44 nM.
Take `CN(C)C(C(=O)N1CCC[C@H]1c1ncc(-c2ccc3cc(-c4ccc(-c5cnc([C@@H]6CCCN6C(=O)[C@H](C6CCOCC6)N(C)C)[nH]5)cc4)ccc3c2)[nH]1)c1ccccc1` (stereo partly drawn) [Example 156]: the EC50 was 0.028 nM in test [1] (setting [9]), 0.001 to 0.999 nM in test [2] (setting [10]), 0.001 to 0.99 nM in test [3] (setting [11]) and 0.001 to 0.999 nM in test [4] (setting [10]).
For `CCN(C1CC1)[C@@H](C(=O)N1CCC[C@H]1c1nc(-c2ccc(-c3ccc4cc(-c5c[nH]c([C@@H]6CCCN6C(=O)[C@@H](NC(=O)OC)C(C)C)n5)ccc4c3)cc2)c[nH]1)c1ccccc1` [Example 168], the EC50 in test [1] (setting [9]) is 0.01 nM; in test [2] (setting [10]), 1 to 44 nM; in test [3] (setting [11]), 0.001 to 0.99 nM; in test [4] (setting [10]), 1 to 44 nM.
For `COC(=O)N[C@H](C(=O)N1CCCC1c1ncc(-c2ccc3cc(-c4ccc(-c5cnc([C@@H]6CCCN6C(=O)[C@H](NC(=O)OC)c6ccccc6)[nH]5)cc4)ccc3c2)[nH]1)C1CCOCC1` (stereo partly drawn) [Example 153], the EC50 in test [1] (setting [9]) was 0.012 nM; in test [2] (setting [10]), 0.001 to 0.999 nM; in test [3] (setting [11]), 0.001 to 0.99 nM; in test [4] (setting [10]), 0.001 to 0.999 nM.
As to `COC(=O)N[C@H](C(=O)N1[C@@H]2CC[C@@H](C2)[C@H]1c1ncc(-c2ccc(-c3ccc4cc(-c5cnc([C@@H]6CC7(CC7)CN6C(=O)C(c6ccccc6)N6CCOCC6)[nH]5)ccc4c3)cc2)[nH]1)C(C)C` (stereo partly drawn) [Example 28], the EC50 is 0.023 nM in test [1] (setting [5]), 1 to 44 nM in test [2] (setting [6]), 0.001 to 0.99 nM in test [3] (setting [7]) and 1 to 44 nM in test [4] (setting [6]).
For the compound `COC(=O)N[C@H](C(=O)N1CCC[C@H]1c1ncc(-c2ccc(-c3ccc4cc(-c5cnc([C@@H]6CCCN6C(=O)[C@H](NC(=O)OC)c6ccccc6)[nH]5)ccc4c3)cc2)[nH]1)C(C)C` [Example 27], the EC50 in test [1] (read-out: 1b) was 0.011 nM; in test [2] (Table 2, 72 hours) it was 0.001 to 0.999 nM; in test [3] (read-out: 3a, Table 2, genotype 3a NS5A chimeric replicon), 0.001 to 0.99 nM; in test [4] (Table 2, 72 hours), 0.001 to 0.999 nM.
As to `COC(=O)N[C@H](C(=O)N1C[C@@H](C#N)C[C@H]1c1ncc(-c2ccc3cc(-c4ccc(-c5cnc([C@@H]6CCCN6C(=O)[C@@H](c6ccccc6)N(C)C)[nH]5)cc4)ccc3c2)[nH]1)C(C)C` [Example 137], the EC50 in test [1] (setting [9]) is 0.012 nM; in test [2] (setting [10]), 0.001 to 0.999 nM; in test [3] (setting [11]), 0.001 to 0.99 nM; in test [4] (setting [10]), 0.001 to 0.999 nM.
For `COC(=O)N[C@H](C(=O)N1C[C@H](C#N)C[C@H]1c1ncc(-c2ccc3cc(-c4ccc(-c5cnc([C@@H]6CCCN6C(=O)[C@H](NC(=O)OC)c6ccccc6)[nH]5)cc4)ccc3c2)[nH]1)C(C)C` [Example 135], the EC50 in test [1] (setting [9]) was 0.006 nM; in test [2] (setting [10]), 0.001 to 0.999 nM; in test [3] (setting [11]), more than 5 nM; in test [4] (setting [10]) it was 0.001 to 0.999 nM.
Consider `COC(=O)N[C@H](C(=O)N1CCC[C@H]1c1ncc(-c2ccc3cc(C#Cc4cnc([C@@H]5CCCN5C(=O)[C@H](NC(=O)OC)c5ccccc5)[nH]4)ccc3c2)[nH]1)C(C)C` [Example 115], for which the EC50 in test [1] (setting [9]) is 0.019 nM; in test [2] (setting [10]), 0.001 to 0.999 nM; in test [3] (setting [11]), 0.001 to 0.99 nM; in test [4] (setting [10]), 0.001 to 0.999 nM.
As to `COC(=O)N[C@H](C(=O)N1CCC[C@H]1c1ncc(-c2ccc3cc(-c4ccc(-c5cnc([C@@H]6CC(=O)CN6C(=O)[C@@H](c6ccccc6)N(C)C)[nH]5)cc4)ccc3c2)[nH]1)C(C)C` [Example 34], the EC50 in test [1] (setting [5]) was 0.018 nM; in test [2] (setting [6]), 0.001 to 0.999 nM; in test [3] (setting [7]) it was 0.001 to 0.99 nM; in test [4] (setting [6]), 0.001 to 0.999 nM.
With `COC(=O)N[C@@H](CC1CCOCC1)C(=O)N1CCC[C@H]1c1ncc(-c2ccc3cc(-c4ccc(-c5cnc([C@@H]6CCCN6C(=O)[C@H](NC(=O)OC)c6ccccc6)[nH]5)cc4)ccc3c2)[nH]1` [Example 213], the EC50 in test [1] (setting [9]) is 0.03 nM; in test [2] (setting [10]), 0.001 to 0.999 nM; in test [3] (setting [11]), 0.001 to 0.99 nM; in test [4] (setting [10]), 0.001 to 0.999 nM.
With `COC(=O)N[C@H](C(=O)N1CCC[C@H]1c1ncc(-c2ccc3cc(-c4ccc(-c5cnc([C@@H]6CCCN6C(=O)C(c6ccc7c(c6)OCO7)N(C)C)[nH]5)cc4)ccc3c2)[nH]1)C(C)C` (stereo partly drawn) [Example 151], the EC50 is 0.038 nM in test [1] (setting [9]), 1 to 44 nM in test [2] (setting [10]), 1 to 4.99 nM in test [3] (setting [11]) and 1 to 44 nM in test [4] (setting [10]).
`COC(=O)N[C@H](C(=O)N1CC2(C[C@H]1c1ncc(-c3ccc(-c4ccc5cc(-c6cnc([C@@H]7CCCN7C(=O)[C@H](NC(=O)OC)c7ccccc7)[nH]6)ccc5c4)cc3)[nH]1)OCCO2)C(C)C` [Example 35]: the EC50 is 0.008 nM in test [1] (setting [5]), 0.001 to 0.999 nM in test [2] (setting [6]), 0.001 to 0.99 nM in test [3] (setting [7]) and 0.001 to 0.999 nM in test [4] (setting [6]).
